The text below walks through data of ChEMBL document CHEMBL1145498, “A systematic interaction map of validated kinase inhibitors with Ser/Thr kinases” (Proc Natl Acad Sci U S A, 2007).

For test [1], the target named is Serine/threonine-protein kinase pim-3 (Homo sapiens) (UniProt Q86V86).
Test [2] has as its target Mitogen-activated protein kinase 11 (Homo sapiens, UniProt Q15759).
The target of test [3] is Serine/threonine-protein kinase PAK 5 (Homo sapiens) (UniProt Q9P286).
Test [4] addresses Serine/threonine-protein kinase PAK 4 (Homo sapiens) (UniProt O96013).
For test [5], the target named is Tyrosine-protein kinase JAK1 (Homo sapiens) (UniProt P23458).
Sequence of Tyrosine-protein kinase JAK1 (Homo sapiens) (P23458 whole entry): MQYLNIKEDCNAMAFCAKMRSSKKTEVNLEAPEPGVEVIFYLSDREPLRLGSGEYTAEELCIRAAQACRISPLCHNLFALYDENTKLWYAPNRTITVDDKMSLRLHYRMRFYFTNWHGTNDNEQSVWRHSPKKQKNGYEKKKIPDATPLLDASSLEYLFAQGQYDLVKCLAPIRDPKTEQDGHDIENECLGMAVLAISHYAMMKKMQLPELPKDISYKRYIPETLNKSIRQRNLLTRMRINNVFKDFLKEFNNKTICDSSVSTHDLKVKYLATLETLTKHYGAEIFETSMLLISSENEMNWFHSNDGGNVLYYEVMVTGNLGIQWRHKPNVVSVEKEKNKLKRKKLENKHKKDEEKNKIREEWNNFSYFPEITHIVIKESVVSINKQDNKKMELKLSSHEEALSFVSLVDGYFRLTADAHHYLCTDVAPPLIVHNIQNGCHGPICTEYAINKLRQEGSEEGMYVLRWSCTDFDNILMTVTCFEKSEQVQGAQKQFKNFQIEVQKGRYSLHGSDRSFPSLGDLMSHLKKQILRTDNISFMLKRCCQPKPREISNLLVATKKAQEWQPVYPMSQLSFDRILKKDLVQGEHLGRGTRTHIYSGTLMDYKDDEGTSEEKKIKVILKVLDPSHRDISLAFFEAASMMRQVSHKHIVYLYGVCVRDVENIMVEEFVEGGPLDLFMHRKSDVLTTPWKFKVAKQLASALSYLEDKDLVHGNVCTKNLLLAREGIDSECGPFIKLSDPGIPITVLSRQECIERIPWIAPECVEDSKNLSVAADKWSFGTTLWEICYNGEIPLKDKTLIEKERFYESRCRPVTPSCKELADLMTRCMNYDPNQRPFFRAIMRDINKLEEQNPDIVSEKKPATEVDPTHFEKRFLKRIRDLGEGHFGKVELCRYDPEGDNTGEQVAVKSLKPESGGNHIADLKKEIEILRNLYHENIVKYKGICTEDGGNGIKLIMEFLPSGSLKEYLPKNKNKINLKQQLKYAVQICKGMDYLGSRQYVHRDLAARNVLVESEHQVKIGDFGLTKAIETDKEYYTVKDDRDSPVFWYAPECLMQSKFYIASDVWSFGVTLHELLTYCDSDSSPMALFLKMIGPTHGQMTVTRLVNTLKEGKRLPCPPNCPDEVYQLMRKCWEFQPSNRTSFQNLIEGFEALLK
In test [6] the target is T1, Serine/threonine-protein kinase Nek2 (Homo sapiens) (UniProt P51955).
T1 sequence (whole entry): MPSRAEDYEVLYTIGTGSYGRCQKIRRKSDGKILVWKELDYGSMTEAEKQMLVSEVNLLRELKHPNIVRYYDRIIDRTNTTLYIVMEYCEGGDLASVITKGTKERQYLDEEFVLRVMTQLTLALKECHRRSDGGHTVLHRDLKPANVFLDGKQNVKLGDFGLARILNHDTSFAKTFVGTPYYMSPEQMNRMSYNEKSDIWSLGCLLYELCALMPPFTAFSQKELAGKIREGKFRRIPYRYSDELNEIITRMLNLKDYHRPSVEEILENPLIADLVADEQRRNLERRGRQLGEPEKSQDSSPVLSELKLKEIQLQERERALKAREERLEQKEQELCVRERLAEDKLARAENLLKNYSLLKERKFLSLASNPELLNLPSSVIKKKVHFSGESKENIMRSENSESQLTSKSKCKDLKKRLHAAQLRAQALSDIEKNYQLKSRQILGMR

Test [7] deals with T2, Serine/threonine-protein kinase PLK4 (Homo sapiens) (UniProt O00444).
T2 sequence (whole entry): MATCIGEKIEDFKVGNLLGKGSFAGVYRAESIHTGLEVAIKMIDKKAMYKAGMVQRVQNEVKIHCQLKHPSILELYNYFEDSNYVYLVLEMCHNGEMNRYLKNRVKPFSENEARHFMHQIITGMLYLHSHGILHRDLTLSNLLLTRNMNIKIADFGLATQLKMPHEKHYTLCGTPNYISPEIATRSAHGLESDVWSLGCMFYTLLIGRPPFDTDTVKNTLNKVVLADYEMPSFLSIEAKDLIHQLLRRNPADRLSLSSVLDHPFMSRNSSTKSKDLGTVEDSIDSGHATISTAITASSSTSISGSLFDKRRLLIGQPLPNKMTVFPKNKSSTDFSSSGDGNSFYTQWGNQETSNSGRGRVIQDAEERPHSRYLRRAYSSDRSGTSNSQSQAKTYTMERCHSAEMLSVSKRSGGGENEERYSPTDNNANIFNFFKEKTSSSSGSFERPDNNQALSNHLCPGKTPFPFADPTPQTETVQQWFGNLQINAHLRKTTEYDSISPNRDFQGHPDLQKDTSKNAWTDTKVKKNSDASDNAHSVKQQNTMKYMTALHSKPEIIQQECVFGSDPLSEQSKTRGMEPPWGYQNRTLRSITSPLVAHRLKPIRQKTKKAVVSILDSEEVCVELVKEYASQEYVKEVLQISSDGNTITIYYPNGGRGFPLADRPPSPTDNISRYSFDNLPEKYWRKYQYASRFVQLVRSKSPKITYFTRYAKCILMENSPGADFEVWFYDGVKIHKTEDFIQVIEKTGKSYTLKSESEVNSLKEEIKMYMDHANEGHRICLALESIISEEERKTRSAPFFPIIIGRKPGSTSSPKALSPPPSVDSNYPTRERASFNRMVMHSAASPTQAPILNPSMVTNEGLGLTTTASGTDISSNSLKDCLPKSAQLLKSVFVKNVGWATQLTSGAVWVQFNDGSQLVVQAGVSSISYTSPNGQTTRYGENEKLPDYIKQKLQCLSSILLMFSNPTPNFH

Test [8] addresses cAMP-dependent protein kinase catalytic subunit alpha (Homo sapiens) (UniProt P17612).
Test [9] has as its target Serine/threonine-protein kinase Chk2 (Homo sapiens, UniProt O96017).
Test [10] deals with T3, Serine/threonine-protein kinase VRK1 (Homo sapiens) (UniProt Q99986).
T3 sequence (whole entry): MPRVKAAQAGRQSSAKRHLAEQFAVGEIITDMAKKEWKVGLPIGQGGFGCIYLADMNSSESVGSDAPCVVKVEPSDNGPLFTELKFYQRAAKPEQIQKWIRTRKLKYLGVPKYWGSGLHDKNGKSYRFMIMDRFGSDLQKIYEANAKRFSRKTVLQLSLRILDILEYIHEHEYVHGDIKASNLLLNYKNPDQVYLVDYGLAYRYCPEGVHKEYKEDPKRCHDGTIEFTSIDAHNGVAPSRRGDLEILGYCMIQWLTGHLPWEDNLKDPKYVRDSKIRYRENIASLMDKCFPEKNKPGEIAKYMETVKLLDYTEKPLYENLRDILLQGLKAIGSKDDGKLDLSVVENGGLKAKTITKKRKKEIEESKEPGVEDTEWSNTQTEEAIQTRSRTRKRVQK

In test [11] the target is STE20-like serine/threonine-protein kinase (Homo sapiens) (UniProt Q9H2G2).
Sequence of STE20-like serine/threonine-protein kinase (Homo sapiens) (Q9H2G2 whole entry, looked up): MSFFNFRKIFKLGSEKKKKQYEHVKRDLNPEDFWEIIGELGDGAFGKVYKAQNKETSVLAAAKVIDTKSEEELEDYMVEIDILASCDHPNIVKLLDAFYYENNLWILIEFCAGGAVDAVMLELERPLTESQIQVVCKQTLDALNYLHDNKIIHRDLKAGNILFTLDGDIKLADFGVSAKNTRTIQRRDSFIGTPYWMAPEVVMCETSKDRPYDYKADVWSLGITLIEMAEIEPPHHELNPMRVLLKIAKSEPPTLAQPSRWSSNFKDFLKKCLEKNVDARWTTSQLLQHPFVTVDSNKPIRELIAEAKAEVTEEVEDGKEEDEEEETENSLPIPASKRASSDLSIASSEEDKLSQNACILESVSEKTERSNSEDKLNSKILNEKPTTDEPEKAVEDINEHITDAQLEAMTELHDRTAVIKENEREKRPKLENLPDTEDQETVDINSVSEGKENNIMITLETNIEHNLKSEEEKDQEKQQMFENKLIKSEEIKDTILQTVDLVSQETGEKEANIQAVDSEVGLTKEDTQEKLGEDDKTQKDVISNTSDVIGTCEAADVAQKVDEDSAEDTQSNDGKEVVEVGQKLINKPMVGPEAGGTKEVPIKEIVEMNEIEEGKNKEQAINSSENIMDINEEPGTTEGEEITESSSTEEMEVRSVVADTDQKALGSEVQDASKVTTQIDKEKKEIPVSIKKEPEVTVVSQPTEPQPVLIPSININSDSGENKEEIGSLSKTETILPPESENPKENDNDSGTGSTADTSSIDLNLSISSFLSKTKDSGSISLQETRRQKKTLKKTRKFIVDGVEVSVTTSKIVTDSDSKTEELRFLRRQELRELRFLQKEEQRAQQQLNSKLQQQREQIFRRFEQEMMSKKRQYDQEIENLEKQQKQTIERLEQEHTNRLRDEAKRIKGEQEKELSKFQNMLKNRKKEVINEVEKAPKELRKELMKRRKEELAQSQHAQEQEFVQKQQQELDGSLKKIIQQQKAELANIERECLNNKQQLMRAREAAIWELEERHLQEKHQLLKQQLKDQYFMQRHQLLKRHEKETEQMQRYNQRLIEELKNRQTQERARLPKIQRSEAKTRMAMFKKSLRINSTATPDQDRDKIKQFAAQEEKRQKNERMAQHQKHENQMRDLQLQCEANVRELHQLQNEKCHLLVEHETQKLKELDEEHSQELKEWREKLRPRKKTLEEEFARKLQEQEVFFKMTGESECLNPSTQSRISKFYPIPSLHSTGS
The target of test [12] is T4, 3-phosphoinositide-dependent protein kinase 1 (Homo sapiens) (UniProt O15530).
T4 sequence (whole entry): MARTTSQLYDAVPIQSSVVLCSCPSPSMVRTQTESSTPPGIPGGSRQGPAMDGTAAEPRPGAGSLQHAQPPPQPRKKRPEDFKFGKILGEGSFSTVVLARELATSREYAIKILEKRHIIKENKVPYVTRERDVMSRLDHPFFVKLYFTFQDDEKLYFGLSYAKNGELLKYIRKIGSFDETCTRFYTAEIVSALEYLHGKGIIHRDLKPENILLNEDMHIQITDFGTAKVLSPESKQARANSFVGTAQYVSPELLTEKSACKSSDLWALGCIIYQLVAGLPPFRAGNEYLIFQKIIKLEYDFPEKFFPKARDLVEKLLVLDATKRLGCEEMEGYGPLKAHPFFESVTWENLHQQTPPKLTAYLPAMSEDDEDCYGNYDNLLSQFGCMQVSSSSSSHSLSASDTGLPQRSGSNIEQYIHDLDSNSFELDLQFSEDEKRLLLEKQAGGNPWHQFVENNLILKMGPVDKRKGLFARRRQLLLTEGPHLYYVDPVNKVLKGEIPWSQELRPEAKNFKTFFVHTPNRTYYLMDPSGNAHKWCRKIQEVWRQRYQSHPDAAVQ

Sequence of Serine/threonine-protein kinase PAK 4 (Homo sapiens) (O96013 whole entry, looked up): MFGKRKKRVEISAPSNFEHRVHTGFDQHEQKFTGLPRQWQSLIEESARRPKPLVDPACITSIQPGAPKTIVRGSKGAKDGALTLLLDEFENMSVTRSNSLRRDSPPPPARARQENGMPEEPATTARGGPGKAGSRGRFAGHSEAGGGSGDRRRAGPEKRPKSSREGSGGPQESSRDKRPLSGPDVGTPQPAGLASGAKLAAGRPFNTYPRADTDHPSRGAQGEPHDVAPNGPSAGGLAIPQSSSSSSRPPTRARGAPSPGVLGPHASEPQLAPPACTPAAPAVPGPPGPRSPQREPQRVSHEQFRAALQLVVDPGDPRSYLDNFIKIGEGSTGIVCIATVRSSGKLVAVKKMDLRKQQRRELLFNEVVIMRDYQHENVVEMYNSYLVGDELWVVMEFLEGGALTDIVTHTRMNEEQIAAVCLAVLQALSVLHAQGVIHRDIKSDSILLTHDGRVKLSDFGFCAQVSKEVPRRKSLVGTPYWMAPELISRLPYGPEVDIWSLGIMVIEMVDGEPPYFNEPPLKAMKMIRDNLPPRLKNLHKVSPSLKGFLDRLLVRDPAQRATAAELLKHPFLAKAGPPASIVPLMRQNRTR
Sequence of Serine/threonine-protein kinase PAK 5 (Homo sapiens) (Q9P286 whole entry, looked up): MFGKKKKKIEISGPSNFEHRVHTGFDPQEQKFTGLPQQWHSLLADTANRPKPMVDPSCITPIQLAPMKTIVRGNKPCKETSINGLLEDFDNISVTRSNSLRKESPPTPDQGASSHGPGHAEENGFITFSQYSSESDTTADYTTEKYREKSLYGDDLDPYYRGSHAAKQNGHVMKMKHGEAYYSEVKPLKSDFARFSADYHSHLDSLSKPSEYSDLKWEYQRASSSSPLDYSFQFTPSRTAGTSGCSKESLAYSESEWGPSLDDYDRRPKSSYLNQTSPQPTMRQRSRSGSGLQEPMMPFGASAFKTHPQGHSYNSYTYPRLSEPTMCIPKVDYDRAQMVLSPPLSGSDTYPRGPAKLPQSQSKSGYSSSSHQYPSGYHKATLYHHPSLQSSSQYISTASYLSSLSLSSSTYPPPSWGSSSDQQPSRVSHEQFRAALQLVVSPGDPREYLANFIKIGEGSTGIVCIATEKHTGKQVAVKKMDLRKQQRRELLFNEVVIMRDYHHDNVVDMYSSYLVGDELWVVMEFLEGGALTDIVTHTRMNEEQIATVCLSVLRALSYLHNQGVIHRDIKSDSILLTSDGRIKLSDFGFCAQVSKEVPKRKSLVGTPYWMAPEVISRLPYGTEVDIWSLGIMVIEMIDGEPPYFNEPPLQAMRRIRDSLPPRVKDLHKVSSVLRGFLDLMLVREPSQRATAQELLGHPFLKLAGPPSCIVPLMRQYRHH
Sequence of Mitogen-activated protein kinase 11 (Q15759 whole entry): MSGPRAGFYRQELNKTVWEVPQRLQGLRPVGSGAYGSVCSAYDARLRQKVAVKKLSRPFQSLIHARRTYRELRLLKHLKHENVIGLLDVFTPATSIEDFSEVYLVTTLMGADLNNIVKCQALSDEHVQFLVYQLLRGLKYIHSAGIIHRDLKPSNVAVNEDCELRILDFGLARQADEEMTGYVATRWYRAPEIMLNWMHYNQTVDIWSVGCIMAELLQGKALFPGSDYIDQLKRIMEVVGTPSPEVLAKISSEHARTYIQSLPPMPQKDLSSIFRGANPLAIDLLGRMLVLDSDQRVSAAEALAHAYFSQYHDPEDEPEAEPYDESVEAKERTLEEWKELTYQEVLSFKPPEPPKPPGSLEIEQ
Sequence of Serine/threonine-protein kinase Chk2 (O96017 whole entry): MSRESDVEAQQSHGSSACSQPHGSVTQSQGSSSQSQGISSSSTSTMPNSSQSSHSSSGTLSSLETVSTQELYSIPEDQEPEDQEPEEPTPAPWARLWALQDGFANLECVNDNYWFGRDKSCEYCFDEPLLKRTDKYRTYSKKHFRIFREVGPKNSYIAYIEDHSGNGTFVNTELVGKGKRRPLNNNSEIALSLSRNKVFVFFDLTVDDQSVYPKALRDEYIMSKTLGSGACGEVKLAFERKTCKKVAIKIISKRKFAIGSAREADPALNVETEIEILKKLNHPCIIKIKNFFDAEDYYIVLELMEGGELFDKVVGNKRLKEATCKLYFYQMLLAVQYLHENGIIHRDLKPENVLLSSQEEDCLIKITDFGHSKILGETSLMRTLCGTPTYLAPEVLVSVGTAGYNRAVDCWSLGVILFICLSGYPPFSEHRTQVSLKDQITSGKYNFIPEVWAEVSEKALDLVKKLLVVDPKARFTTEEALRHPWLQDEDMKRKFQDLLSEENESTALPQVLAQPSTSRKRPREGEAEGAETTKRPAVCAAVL

For orientation: ΔTm means the shift of the melting midpoint relative to a reference. Regarding `CC(=O)O/N=C1/C(=C2/C(=O)Nc3cc(Br)ccc32)Nc2ccccc21` [6-BROMOINDIRUBIN-3'-ACETOXIME], the ΔTm in test [1] stood at 1.1 °C; in test [2], 1.1 °C; in test [3], 0.9 °C; in test [4], 2.2 °C; in test [5], 2.5 °C; in test [6], 1.9 °C. Further, the ΔTm in test [7] was determined as 6.7 °C; in test [8], 3 °C; in test [9], 0.1 °C; in test [10], 0.3 °C; in test [11], 2.1 °C; in [12] it was 0.8 °C.

Turning to `O=C1C(Cl)=C(N2C(=O)CCC2=O)C(=O)c2ccccc21`, the ΔTm in [1] was -1.7 °C; in test [2] it was 8.6 °C; in test [3], -1.3 °C; in test [4], -0.4 °C; in test [5], -2.9 °C; in [6], 2.5 °C. For the same molecule, the ΔTm was -3.7 °C in test [7]; -0.2 °C in [8]; 5.6 °C in [9]; -0.6 °C in [10]; -0.6 °C in test [11]; -1.9 °C in test [12].

As for `N#C/C(=C(/N)Sc1ccc(N)cc1)c1ccccc1C(F)(F)F`, the ΔTm in test [1] is 0.8 °C; in test [2] it was 0 °C; in [3], 0.6 °C; in [4], 1.3 °C; in test [5], -5 °C; in test [6] it was 1.3 °C. In addition, the thermal shift (ΔTm) in [7] was 0.1 °C; in [8] it was 0.7 °C; in test [9] it was 0.3 °C; in test [10], 0.4 °C; in [11] it was 0 °C; in test [12], -0.1 °C.

For `CN(C)c1ncnc2nc[nH]c12` [DIMETHYLADENINE], the ΔTm came out at 0.9 °C in [1]; 0.1 °C in test [2]; 0 °C in [3]; 0.5 °C in test [4]; 0.9 °C in test [5]; 0.8 °C in [6]. In addition, the ΔTm in test [7] is 1.3 °C; in [8], 0.7 °C; in test [9], 0.5 °C; in [10], 0 °C; in test [11], 0.8 °C; in [12] it was 0.1 °C.

For the molecule `Cc1cc(Nc2nc(-c3ccccc3)nc3ccccc23)n[nH]1`, the ΔTm in [1] worked out at 5.2 °C; in test [2] it was 0.1 °C; in test [3] it was 5.2 °C; in test [4] it was 5.9 °C; in [5], 12.2 °C; in test [6], 3 °C. For the same molecule, the ΔTm in [7] is 1.3 °C; in test [8], 6.4 °C; in test [9], 5.7 °C; in test [10] it was 0.8 °C; in test [11], 7.1 °C; in test [12], -0.4 °C.

For `Cc1ccc(NC(=O)c2cccc(N(C)C)c2)cc1NC(=O)c1ccc(O)cc1`, the ΔTm came out at 0.6 °C in test [1]; 4.1 °C in [2]; 0.6 °C in test [3]; 0.4 °C in [4]; 0.1 °C in [5]; 0.3 °C in test [6]. Further, the ΔTm in test [7] was 0.8 °C; in test [8] it was 0.9 °C; in test [9], 0.9 °C; in test [10], -0.3 °C; in [11], 0.9 °C; in [12], -0.4 °C.

As for `Brc1c(Br)c(Br)c2[nH]nnc2c1Br` [TETRABROMOBENZOTRIAZOLE], the ΔTm in [1] is 4.9 °C; in test [2], 0.8 °C; in test [3] it was 0.2 °C; in test [4], -0.1 °C; in test [5], 0.7 °C; in [6], -0.1 °C. Also, the ΔTm was 4.4 °C in [7]; 0.6 °C in test [8]; 0.5 °C in [9]; -1.5 °C in [10]; 1.2 °C in test [11]; -4.4 °C in test [12].

As for `Cc1[nH]c(/C=C2\C(=O)Nc3ccc(S(=O)(=O)N(C)c4cccc(Cl)c4)cc32)c(C)c1C(=O)N1CCN(C)CC1`, the shift in melting temperature (ΔTm) in test [1] is 9.7 °C; in [2] it was 0.1 °C; in test [3], 0.9 °C; in test [4] it was 1.4 °C; in [5], 3.4 °C; in [6], 0.1 °C. In addition, the ΔTm in test [7] is 0.8 °C; in test [8], 3.1 °C; in test [9], 2.9 °C; in test [10], 1.5 °C; in test [11] it was 2.4 °C; in [12], -0.6 °C.

Take `CCCNC(=O)Nc1ccc(Oc2ncnc3cc(OC)c(OC)cc23)cc1Cl` [KRN-633]: the ΔTm in [1] was 4.9 °C; in test [2], -0.3 °C; in [3], -0.2 °C; in [4], 0.5 °C; in test [5], 1 °C; in test [6], -0.3 °C. In addition, the ΔTm is 1 °C in test [7]; 1 °C in test [8]; 2.4 °C in test [9]; 0.3 °C in test [10]; 0.5 °C in test [11]; -0.1 °C in test [12].

Regarding `COc1cc(C[C@H]2C(=O)OC[C@@H]2Cc2ccc(OC)c(OC)c2)ccc1O` [ARCTIGENIN], the ΔTm in test [1] was 0.6 °C; in [2], -0.2 °C; in test [3], 0.1 °C; in test [4], 0.8 °C; in test [5], -0.1 °C; in test [6], 1.1 °C. Further, the shift in melting temperature (ΔTm) is 0 °C in test [7]; 0.2 °C in test [8]; -0.3 °C in [9]; 0.7 °C in [10]; -0.5 °C in test [11]; 0 °C in [12].
